Test results published in patent publication US9290511B2, “Thieno-pyrimidines, useful as potassium channel inhibitors” (XENTION LIMITED, priority 2011, dated 2016).

target: T1, Kir3.1/3.4 (Rattus norvegicus, UniProt P48548+P63251); assay: Kir3.1/3.4 Electrophysiology Method (manual whole-cell patch clamp); type: cell-based; details: Electrophysiology Method (TABLE 1)
T1 construct: expressed in transfected cells
T1 sequence (P63251 1-501): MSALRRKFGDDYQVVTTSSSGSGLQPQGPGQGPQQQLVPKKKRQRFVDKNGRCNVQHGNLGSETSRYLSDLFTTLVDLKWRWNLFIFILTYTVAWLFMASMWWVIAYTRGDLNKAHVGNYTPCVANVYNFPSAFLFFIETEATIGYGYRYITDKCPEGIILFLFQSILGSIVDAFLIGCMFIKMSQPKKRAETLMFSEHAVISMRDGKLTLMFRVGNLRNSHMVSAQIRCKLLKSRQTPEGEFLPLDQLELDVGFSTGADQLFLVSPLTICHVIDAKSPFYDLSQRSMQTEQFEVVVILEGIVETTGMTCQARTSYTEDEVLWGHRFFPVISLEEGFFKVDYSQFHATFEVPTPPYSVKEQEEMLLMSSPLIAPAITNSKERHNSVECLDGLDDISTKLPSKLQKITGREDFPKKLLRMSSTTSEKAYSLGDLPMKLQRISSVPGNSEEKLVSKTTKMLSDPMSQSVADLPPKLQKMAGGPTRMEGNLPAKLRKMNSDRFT
T1 sequence (P48548 1-419): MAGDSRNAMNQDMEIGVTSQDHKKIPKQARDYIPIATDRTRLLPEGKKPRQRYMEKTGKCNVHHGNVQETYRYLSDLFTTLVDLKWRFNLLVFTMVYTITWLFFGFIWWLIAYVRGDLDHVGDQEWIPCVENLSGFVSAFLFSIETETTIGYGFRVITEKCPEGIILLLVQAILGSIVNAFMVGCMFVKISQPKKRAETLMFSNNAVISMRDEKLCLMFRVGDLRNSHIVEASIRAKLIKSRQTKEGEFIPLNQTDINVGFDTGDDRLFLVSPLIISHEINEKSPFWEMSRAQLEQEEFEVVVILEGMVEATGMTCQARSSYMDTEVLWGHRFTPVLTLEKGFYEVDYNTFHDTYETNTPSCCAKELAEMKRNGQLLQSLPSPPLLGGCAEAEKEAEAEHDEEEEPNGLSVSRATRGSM
Outline: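 Manual whole-cell patch clamp on HEK293 cells stably expressing rat Kir3.1/3.4, with GTPγS in the pipette. Cells were held at −60 mV and stepped to +60 mV, then ramped to −140 mV every 10 s. Steady-state inhibition at −140 mV was measured after subtracting leak recorded in zero-K+ bath.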

| IC50 [nM] | Compound |
| --- | --- |
| < 500 | O[C@H]1CCN(CC2CCN(c3ncnc4scc(-c5ccccc5)c34)CC2)C1 [Example 190] |
| < 500 | CC(C)c1csc2ncnc(N3CCC(CNCCC4CCCN4C)CC3)c12 (centres unmarked) [Example 242] |
| < 500 | C(#Cc1ncnc2scc(-c3ccccc3)c12)COCCN1CCCC1 [Example 161, 5-Phenyl-4-[3-(2-pyrrolidinyl-1-ylethoxy)prop-1-ynyl]thieno[2,3-d]pyrimidine] |
| 500 to 3000 | c1ccc(-c2csc3ncnc(N4CCCC(CNC5CCC5)C4)c23)cc1 (centres unmarked) [Example 207] |
| 500 to 3000 | Fc1ccc(-c2csc3ncnc(N4CCC(CNC5CCC5)CC4)c23)cc1 [Example 78, N-[[1-[5-(4-fluorophenyl)thieno[2,3-d]pyrimidin-4-yl]-4-piperidyl]methyl]cyclobutanamine] |
| < 500 | O=C1NCCN1c1sc2ncnc(N3CCC(COCCN4CCCC4)CC3)c2c1-c1ccccc1 [Example 368] |
| < 500 | c1ccc(-c2csc3ncnc(N4CCC(CNCc5ccccn5)CC4)c23)cc1 [Example 66, N-[[1-(5-phenylthieno[2,3-d]pyrimidin-4-yl)-4-piperidyl]methyl]-1-(2-pyridyl)methanamine] |
| < 500 | C[C@@H](CN(C)C)OCC1CCN(c2ncnc3scc(-c4ccccc4)c23)CC1 [Example 254] |
| 500 to 3000 | c1cc(-c2csc3ncnc(N4CCC(COCCN5CCCC5)CC4)c23)ccn1 [Example 311] |
| 500 to 3000 | CN1CCC(N(C)C(=O)C2CCCN(c3ncnc4scc(-c5ccccc5)c34)C2)C1 (centres unmarked) [Example 282] |
| < 500 | CN1CCC(N(C)CC2CCN(c3ncnc4scc(-c5ccccc5)c34)C2)C1 (centres unmarked) [Example 205] |
| < 500 | O=C(CNCC1CCN(c2ncnc3scc(-c4ccccc4)c23)CC1)N1CCCC1 [Example 105] |
| < 500 | COCCN1CCN(c2nc(N3CCC(CN(C)C4CCN(C)C4)CC3)c3c(-c4ccccc4)csc3n2)CC1 (centres unmarked) [Example 122] |
| < 500 | CN(C)c1nc(N2CCC(COCCN3CCCC3)CC2)nc2scc(-c3ccccc3)c12 [Example 275] |
| < 500 | CN(C)CCCN(C)CC1CCN(c2ncnc3scc(-c4ccccc4)c23)CC1 [Example 72, N,N,N′-trimethyl-N′-[[1-(5-phenylthieno[2,3-d]pyrimidin-4-yl)-4-piperidyl]methyl]propane-1,3-diamine] |
| < 500 | COCC1CCN(c2nc(N(CCO)CCN3CCCC3)nc3scc(-c4ccccc4)c23)CC1 [Example 185] |
| < 500 | CN1CCC(N(C)C2CCN(c3ncnc4scc(-c5ccccc5)c34)CC2)C1 (centres unmarked) [Example 231] |
| < 500 | CN1CCN(c2nc(N3CCC(CN(C)C4CCN(C)C4)CC3)c3c(-c4ccccc4)csc3n2)CC1 (centres unmarked) [Example 111] |
| < 500 | c1ccc(-c2csc3ncnc(N4CCC(COc5cccnc5)CC4)c23)cc1 [Example 180] |
| < 500 | CN(CC1CCN(c2ncnc3scc(-c4ccccc4)c23)CC1)CC1CCCN1 (centres unmarked) [Example 83, N-methyl-1-[1-(5-phenylthieno[2,3-d]pyrimidin-4-yl)-4-piperidyl]-N-(pyrrolidin-2-ylmethyl)methanamine] |
| < 500 | O=C(NCCN1CCCC1)C1CCCN(c2ncnc3scc(-c4ccccc4)c23)C1 (centres unmarked) [Example 268] |
| < 500 | c1ccc(-c2csc3ncnc(N4CCC(CNC5CCC5)CC4)c23)cc1 [Example 64, N-[[1-(5-phenylthieno[2,3-d]pyrimidin-4-yl)-4-piperidyl]methyl]cyclobutanamine] |
| 500 to 3000 | F[C@H]1CCN(CC2CCN(c3ncnc4scc(-c5ccccc5)c34)CC2)C1 [Example 92, 4-[4-[[(3S)-3-fluoropyrrolidin-1-yl]methyl]-1-piperidyl]-5-phenyl-thieno[2,3-d]pyrimidine] |

| IC50 [nM] | Compound |
| --- | --- |
| < 500 | c1ccc(-c2csc3ncnc(N4CCC(CNCCC5CCCO5)CC4)c23)cc1 (centres unmarked) [Example 102] |
| < 500 | c1ccc(-c2csc3ncnc(N4CC[C@@H](COCCN5CCCC5)C4)c23)cc1 [Example 262] |
| 500 to 3000 | OCC1CCN(CC2CCN(c3ncnc4scc(-c5ccccc5)c34)CC2)C1 (centres unmarked) [Example 95, [1-[[1-(5-phenylthieno[2,3-d]pyrimidin-4-yl)-4-piperidyl]methyl]pyrrolidin-3-yl]methanol] |
| < 500 | CN1CCC(N(C)CC2CCN(c3ncnc4scc(-c5ccccc5)c34)CC2)C1 (centres unmarked) [Example 202] |
| < 500 | COCC1CCN(c2nc(CC(=O)NCCN3CCCC3)nc3scc(-c4ccccc4)c23)CC1 [Example 182] |
| 500 to 3000 | OCCNc1nc(N2CCC(CCO)CC2)c2c(-c3ccc(F)cc3)csc2n1 [Example 171] |
| < 500 | N,N-dimethyl-5-phenyl-thieno[2,3-d]pyrimidine-6-carboxamide [Example 339] |
| < 500 | COC1CCN(CC2CCN(c3ncnc4scc(-c5ccccc5)c34)CC2)C1 (centres unmarked) [Example 68, 4-[4-[(3-methoxypyrrolidin-1-yl)methyl]-1-piperidyl]-5-phenyl-thieno[2,3-d]pyrimidine] |
| < 500 | CC(=O)Nc1sc2ncnc(N3CCC(COCCN4CCCC4)CC3)c2c1-c1ccccc1 [Example 162, N-[5-phenyl-4-[4-(2-pyrrolidin-1-ylethoxymethyl)-1-piperidyl]thieno[2,3-d]pyrimidin-6-yl]acetamide] |
| < 500 | c1ccc(-c2csc3ncnc(N4CCCC(OCCN5CCCC5)C4)c23)cc1 (centres unmarked) [Example 272] |
| < 500 | C=CCNCC1CCN(c2ncnc3scc(-c4ccccc4)c23)CC1 [Example 94, N-[[1-(5-phenylthieno[2,3-d]pyrimidin-4-yl)-4-piperidyl]methyl]prop-2-en-1-amine] |
| 500 to 3000 | COCCNCC1CCN(c2nc(NCCN3CCCC3)nc3scc(-c4ccccc4)c23)CC1 [Example 109] |
| < 500 | N#Cc1sc2nccc(N3CCC(COCCN4CCCC4)CC3)c2c1-c1ccccc1 [Example 144] |
| < 500 | COc1ccccc1-c1csc2nc(C3CC3)nc(N3CCC(COCCN4CCCC4)CC3)c12 [Example 358, 2-cyclopropyl-5-(2-methoxyphenyl)-4-[4-(2-pyrrolidin-1-ylethoxymethyl)-1-piperidyl]thieno[2,3-d]pyrimidine] |
| < 500 | CN(C)CCN(C)CC1CCN(c2ncnc3scc(-c4ccccc4)c23)CC1 [Example 71, N,N,N′-trimethyl-N′-[[1-(5-phenylthieno[2,3-d]pyrimidin-4-yl)-4-piperidyl]methyl]ethane-1,2-diamine] |
| < 500 | NC(=O)C1CN(c2nc(N3CCC(COCCN4CCCC4)CC3)nc3scc(-c4ccccc4)c23)CCO1 (centres unmarked) [Example 305] |
| < 500 | CCN1CCCC1CCN(C)CC1CCN(c2ncnc3scc(-c4ccccc4)c23)CC1 (centres unmarked) [Example 87, 2-(1-ethylpyrrolidin-2-yl)-N-methyl-N-[[1-(5-phenylthieno[2,3-d]pyrimidin-4-yl)-4-piperidyl]methyl]ethanamine] |
| < 500 | c1ccc(-c2csc3ncnc(N4CCC(COCCN5CCCC5)CC4)c23)cc1 [Example 5, 5-phenyl-4-[4-(2-pyrrolidin-1-ylethoxymethyl)-1-piperidyl]thieno[2,3-d]pyrimidine] |
| < 500 | CN1CCCC1COCC1CCN(c2ncnc3scc(-c4ccccc4)c23)CC1 (centres unmarked) [Example 7, 4-[4-[(1-methylpyrrolidin-2-yl)methoxymethyl]-1-piperidyl]-5-phenyl-thieno[2,3-d]pyrimidine] |
| 500 to 3000 | CNC(=O)CN(CC1CCN(c2ncnc3scc(-c4ccccc4)c23)CC1)C1CCC1 [Example 252, 2-[cyclobutyl-[[1-(5-phenylthieno[2,3-d]pyrimidin-4-yl)-4-piperidyl]methyl]amino]-N-methyl-acetamide] |
| < 500 | CN1CCC(N(C)CC2CCN(c3ncnc4sc(Br)c(-c5ccccc5)c34)CC2)C1 (centres unmarked) [Example 266] |
| < 500 | N-(2-pyrrolidin-1-ylethyl)thieno[2,3-d]pyrimidin-2-amine [Example 127] |
| < 500 | OCC1(NCC2CCN(c3ncnc4scc(-c5ccccc5)c34)CC2)CCCC1 [Example 54, [1-[[1-(5-phenylthieno[2,3-d]pyrimidin-4-yl)-4-piperidyl]methylamino]cyclopentyl]methanol] |

| Compound | IC50 [nM] |
| --- | --- |
| CNC(=O)c1sc2ncnc(N3C4CCC3CC(COCCN3CCCC3)C4)c2c1-c1ccccc1 (centres unmarked) [Example 361] | < 500 |
| c1cc2c(N3C4CCC3COC4)nc(N3CCC(COCCN4CCCC4)CC3)nc2s1 [Example 302] | < 500 |
| c1ccc(-c2csc3ncnc(N4C5CCC4CC(COCCN4CCCC4)C5)c23)cc1 (centres unmarked) [Example 286] | < 500 |
| COc1ccccc1-c1csc2ncnc(N3C4CCC3CC(N(C)C3CCC3)C4)c12 (centres unmarked) [Example 350] | < 500 |
